# Test results from US10421755B2, “Salts of aza-bicyclic di-aryl ethers and methods to make them or their precursors” (Novartis AG, priority 2011, dated 2019).
# Several values for one entry are separate records, joined by “and”; a condition that tells them apart may be missing. Identical values can stand only once.
# Legend:
# [1] = Particle size measurements by Fraunhofer light diffraction; format: physicochemical; settings: N=8
# Method: Mean particle sizes, X90 and X10 are typically measured by Fraunhofer light diffraction.
# To about 0.5 g of test substance add some drops of the dispersing aid (1% Octastat 5000 (Octel Corp.) in white spirit (Sangajol, Schweizerhall Chemie)). Mix intensively on a vortex mixer, in order to wet the substance thoroughly and to form a smooth and homogeneous paste. Dilute the paste with white spirit to a final volume of 3-6 ml and mix the dispersion again. Determine the cumulative volume distribution using a laser diffraction instrument, e.g. determine the particle sizes at the undersize values of 10%, 50% and 90% (x10, x50, x90). Measuring device: Sympatec HELOS (Sympatec GmbH; focal length: 500 mm, optical concentration≥5%, duration of measurement: 40 sec).
# Dispersion device: Suspension cell (QUIXEL, Sympatec GmbH).
# [2] = Stability in buffer solutions and in solid state; format: physicochemical
# [3] = Stability of the active ingredient in tablets; format: physicochemical; settings: tablets where only certain lubricants are used
# Method: It is particularly important that the active ingredient remains chemically stable over a potential long shelf time. When assessing storage stability, relative amounts of individual degradation products compared to the total amount of active ingredient are taken into consideration. Individual degradation products should all be present in low relative amounts to ensure that no single product can reach a non-acceptable level, e.g. when the active ingredient is administered in high doses.
# [4] = Oral bioavailability in dogs; format: in vivo, beagle dogs; settings: 1.4 μmol/kg p.o.
# Method: Assay: The compound was given to N=3 male beagle dogs in tritiated form:
# The concentration of the compound in blood was determined by LC-RID. The procedure involved the addition of 5 μg of the compound as internal standard (200 μL of solution containing 25 μg/mL of the compound) to 1 mL of blood. After further addition of 1 mL of water, 0.1 mL of buffer pH 9 and 4 mL of tert-butylmethylether, the samples were shaken for 30 min and centrifuged (4000 g for 10 min at 22° C.). The organic phase was transferred into a tube and evaporated in a Speedvac. The residue was reconstituted in 250 μL of mobile phase-water (80:20 v/v) followed by 75 μL of n-hexane and transferred into an autosampler vial. After centrifugation (13,000 g for 2 min at 22° C.), the hexane layer was pipetted off and discarded, 200 μL of the remainder was injected onto an RP18 column (Waters XTerra, 5 μm, 3.9×150 mm at 40° C.) to separate the compound from potential metabolites and endogenous compounds. The mobile phase of ammonium acetate (10 mM: 0.1% v/v TFA-acetonitrile, 58:42 v/v) was used at a flow rate of 1.0 mL/min. The effluent was monitored by a UV-detector set at 261 nm. The peak corresponding to the unchanged compound was collected in a polyethylene vial by a fraction collector (SuperFrac, Pharmacia LKB) and analyzed for radioactivity. The concentration of the compound in each sample was calculated from the ratio of the amount of radioactivity in the eluate fraction to the area of the ultraviolet absorbance of the non-radiolabeled the compound, that was used as the internal standard.
# [5] = Loss on drying / initial water content; format: physicochemical; parameters: Initial water content: unit not given here
# [6] = Known multiple solid forms; format: physicochemical; settings: comparison table, Example 7
# [7] = Decomposition temperature; format: physicochemical; parameters: unit not given here; settings: comparison table, Example 7
# [8] = Hygroscopicity (moisture gain at relative humidity); format: physicochemical; parameters: Hygroscopy @ 85% RH: unit not given here
# [9] = Pharmacokinetics in rats after oral administration; format: in vivo, Wistar rats; settings: 10 mg/kg oral
# Method: If a salt forming agent is used (e.g. fumarate), a corresponding higher amount of the salt will be used to achieve the intended dosing.
# Both compounds were dissolved in Klucel™ (0.5% in water) and were orally administered by gavage (5 ml/kg) to conscious rats (n=8, cross-over design).
# K3-EDTA blood (˜0.2 ml) was collected by puncture of a sublingual vein under light isoflurane anesthesia at the following time points: 0.25, 0.5, 1, 2, 3, 4, 6, 8, 24 h post dose. Immediately after sampling, blood samples were put on ice and were processed to plasma by centrifugation at 4° C. within 15 min after sampling (1000 g, 10 min, 4° C.) to obtain ˜100 μl plasma/sample. All plasma samples were stored at −80° C. until analysis. Since the PK study was performed in a cross-over design, a recovery period of approximately 2 weeks took place before the next treatment/blood sampling was performed.
# The determination of compounds in plasma was done by LC-MS/MS using electrospray ionization.
# [10] = male Wistar rats (n=8), mean (text: ± SD)
# [11] = male Wistar rats, individual rats 01-08, listed as mono-fumarate, 10 mg/kg
smiles,measurement,setting,value
"Cc1ccc(-c2ccc(O[C@H]3CN4CCC3CC4)cn2)cc1.O=C(O)/C=C/C(=O)O [Compound B, (R)-3-(6-(4-methylphenyl)-pyridin-3-yloxy)-1-aza-bicyclo[2.2.2]octane hydrogenfumarate]",particle size x10,[1],5.6±0.5 μm
same,particle size x50 (mean particle size),[1],26.8±1.3 μm
same,particle size x90,[1],77.3±3.3 μm
same,solid-state stability,[2],good
same,stability in buffer solutions,"[2]; many buffer solutions, various pH values",good stability
same,stability in tablets,[3],very stable
same,Plasma (pmoles/ml ± SD),[4]; 0.25 hour,14.7 ± 1.1 pmol/mL
same,Plasma (pmoles/ml ± SD),[4]; 0.5 hour,49.4 ± 21.9 pmol/mL
same,Plasma (pmoles/ml ± SD),[4]; 1 hour,67.6 ± 22.6 pmol/mL
same,Plasma (pmoles/ml ± SD),[4]; 2 hour,75.2 ± 36.8 pmol/mL
same,Plasma (pmoles/ml ± SD),[4]; 4 hour,27.5 ± 13.3 pmol/mL
same,Plasma (pmoles/ml ± SD),[4]; 8 hour,8.1 ± 3.0 pmol/mL
same,Plasma (pmoles/ml ± SD),[4]; 24 hour,0.8 ± 0.7 pmol/mL
same,Loss on drying (LOD) of a sample,[5],< 0.03%
same,Initial water content,"[5]; comparison table, Example 7",<0.5
same,Known Multiple forms,[6],No
same,Decomposition temperature,[7],207
same,hygroscopicity (in words),[8],slightly hygroscopic
same,moisture gain,[8]; at 85% relative humidity (RH),0.5%
same,Hygroscopy @ 85% RH,"[8]; comparison table, Example 7",0.5
same,"Concentration of free form in plasma, Mean All","[9]; male Wistar rats (n=8), 0.25 h, mean",0.149 µg/mL
same,"Concentration of free form in plasma, Mean All","[9]; male Wistar rats (n=8), 0.5 h, mean",0.132 µg/mL
same,"Concentration of free form in plasma, Mean All","[9]; male Wistar rats (n=8), 1 h, mean",0.0774 µg/mL
same,"Concentration of free form in plasma, Mean All","[9]; male Wistar rats (n=8), 2 h, mean",0.0389 µg/mL
same,"Concentration of free form in plasma, Mean All","[9]; male Wistar rats (n=8), 3 h, mean",0.0195 µg/mL
same,"Concentration of free form in plasma, Mean All","[9]; male Wistar rats (n=8), 4 h, mean",0.0106 µg/mL
same,"Concentration of free form in plasma, Mean All","[9]; male Wistar rats (n=8), 6 h, mean",0.0051 µg/mL
same,"Concentration of free form in plasma, Mean All","[9]; male Wistar rats (n=8), 8 h, mean",0.00254 µg/mL
same,"Concentration of free form in plasma, Mean All","[9]; male Wistar rats (n=8), 24 h, mean",0.00032 µg/mL
same,"Tmax (h), all rats","[9]; male Wistar rats (n=8), Median [range], listed as mono-fumarate",0.25 [0.25-0.50]^a h
same,"Cmax/Dose (ng/mL)/(mg/kg), Mean All","[9]; male Wistar rats (n=8), mean",16.5 (ng/mL)/(mg/kg)
same,"AUClast (h · ng/mL), Mean All",[9]; [10],0.249 ± 0.042 µg·h/mL
same,"Cmax (ng/mL), Mean All",[9]; [10],161 ± 53 ng/mL
same,Concentration of free form in plasma,"[9]; male Wistar rats, 0.25 h, individual rats 01-08",0.089 µg/mL
same,Concentration of free form in plasma,"[9]; male Wistar rats, 0.25 h, individual rats 01-08, listed as mono-fumarate, 10 mg/kg",0.167 µg/mL and 0.162 µg/mL and 0.0778 µg/mL and 0.242 µg/mL and 0.204 µg/mL and 0.0933 µg/mL and 0.153 µg/mL
same,Concentration of free form in plasma,"[9]; male Wistar rats, 0.5 h, individual rats 01-08",0.13 µg/mL
same,Concentration of free form in plasma,"[9]; male Wistar rats, 0.5 h, individual rats 01-08, listed as mono-fumarate, 10 mg/kg",0.104 µg/mL and 0.0784 µg/mL and 0.0997 µg/mL and 0.143 µg/mL and 0.179 µg/mL and 0.184 µg/mL and 0.138 µg/mL
same,Concentration of free form in plasma,"[9]; male Wistar rats, 1 h, individual rats 01-08, listed as mono-fumarate, 10 mg/kg",0.0671 µg/mL and 0.0888 µg/mL and 0.0413 µg/mL and 0.0628 µg/mL and 0.0832 µg/mL and 0.0808 µg/mL and 0.101 µg/mL and 0.0942 µg/mL
same,Concentration of free form in plasma,"[9]; male Wistar rats, 2 h, individual rats 01-08, listed as mono-fumarate, 10 mg/kg",0.0274 µg/mL and 0.0392 µg/mL and 0.0378 µg/mL and 0.0246 µg/mL and 0.0471 µg/mL and 0.0376 µg/mL and 0.0548 µg/mL and 0.0426 µg/mL
same,Concentration of free form in plasma,"[9]; male Wistar rats, 3 h, individual rats 01-08, listed as mono-fumarate, 10 mg/kg",0.0124 µg/mL and 0.0177 µg/mL and 0.0253 µg/mL and 0.0117 µg/mL and 0.0196 µg/mL and 0.0206 µg/mL and 0.0251 µg/mL and 0.0232 µg/mL
same,Concentration of free form in plasma,"[9]; male Wistar rats, 4 h, individual rats 01-08, listed as mono-fumarate, 10 mg/kg",0.00906 µg/mL and 0.0106 µg/mL and 0.0133 µg/mL and 0.0059 µg/mL and 0.00971 µg/mL and 0.0118 µg/mL and 0.013 µg/mL and 0.0111 µg/mL
same,Concentration of free form in plasma,"[9]; male Wistar rats, 6 h, individual rats 01-08, listed as mono-fumarate, 10 mg/kg",0.00749 µg/mL and 0.00347 µg/mL and 0.00763 µg/mL and 0.00579 µg/mL and 0.00429 µg/mL and 0.00424 µg/mL and 0.00405 µg/mL and 0.00387 µg/mL
same,Concentration of free form in plasma,"[9]; male Wistar rats, 8 h, individual rats 01-08, listed as mono-fumarate, 10 mg/kg",0.00291 µg/mL and 0.00235 µg/mL and 0.00362 µg/mL and 0.00262 µg/mL and 0.00246 µg/mL and 0.00194 µg/mL and 0.00238 µg/mL and 0.00207 µg/mL
same,AUClast,[9]; [11],0.202 µg·h/mL and 0.259 µg·h/mL and 0.212 µg·h/mL and 0.188 µg·h/mL and 0.269 µg·h/mL and 0.292 µg·h/mL and 0.298 µg·h/mL and 0.272 µg·h/mL
same,Cmax,[9]; [11],0.167 µg/mL and 0.162 µg/mL and 0.0784 µg/mL and 0.0997 µg/mL and 0.242 µg/mL and 0.204 µg/mL and 0.184 µg/mL and 0.153 µg/mL
same,Cmax/Dose (ng/mL)/(mg/kg),[9]; [11],17.2 (ng/mL)/(mg/kg) and 16.4 (ng/mL)/(mg/kg) and 7.88 (ng/mL)/(mg/kg) and 10.2 (ng/mL)/(mg/kg) and 25.2 (ng/mL)/(mg/kg) and 21.1 (ng/mL)/(mg/kg) and 18.3 (ng/mL)/(mg/kg) and 15.7 (ng/mL)/(mg/kg)
same,Tlast,[9]; [11],8.0 h (2×) and 24.0 h (6×)
same,Tmax,[9]; [11],0.25 h (5×) and 0.50 h (3×)
same,T½,[9]; [11],2.44 h and 5.02 h and 3.62 h and 3.71 h and 2.02 h and 3.97 h and 5.51 h
same,"T½ (h), Mean All","[9]; male Wistar rats, mean",3.76 h
